Measured values as given in article PMC9105604, “Parathyroid Hormone-Related Peptide and Its Analog, Abaloparatide, Attenuate Lethal Myocardial Ischemia-Reperfusion Injury” (Journal of Clinical Medicine, 2022).

Assays:
HL-1 cardiomyocytes [1] = experiment: MTT viability of HL-1 cardiomyocytes with or without MEK-ERK inhibitor PD98059 (Protocol 2B)
Experimental: (§2) The primary endpoint for Protocols 1A–C was HL-1 cell viability assessed using the MTT (3-(4,5-dimethythiazol-2-yl)-2,5-diphenyl tetrazolium bromide) assay (Sigma Aldrich, St. Louis, MO, USA). This well-established colorimetric method is based on the reduction of the soluble tetrazolium salt to purple formazan crystals by viable, metabolically active cells and quantified by measuring absorbance at 570 nm [25].
At 24 h after the onset of treatment, cells underwent either 2 h of SI + 24 h reoxygenation or a time-matched period of normoxia (n = 2 independent replicates per group). At 24 h following relief of SI, cell viability was quantified using the MTT assay as described in Protocol 1.

phospho-Akt = experiment: Immunoblot of phospho-Akt in HL-1 cells after simulated ischemia-reperfusion (Protocol 2A); assay type: cell-based; details: 10 nM, 24 h pretreatment, 2 h SI + 10 min reoxygenation; n = 3; vehicle 0.14 ± 0.01
Experimental: (§1) At 10 min post-reoxygenation, cells were harvested and lysed in RIPA buffer containing 2 protease and phosphatase inhibitors. The lysates were centrifuged at 14,000× g for 15 min, and the resultant supernatant was collected and probed for the expression of ERK (total and phosphorylated: antibodies from Cell Signaling Technology Inc., Danvers, MA, USA), PI3 kinase/Akt (total and phosphorylated: Cell Signaling Technology Inc., Danvers, MA, USA) and GAPDH (Sigma Aldrich Inc., St. Louis, MO, USA) using standard methods. Immunoreactive bands were identified by incubation with horseradish peroxidase (HRP)-conjugated secondary antibody, visualized using x-ray film, and quantified using the NIH ImageJ software.

[2] = in vivo, cited from earlier work
phospho-ERK = experiment: Immunoblot of phospho-ERK in HL-1 cells after simulated ischemia-reperfusion (Protocol 2A); assay type: cell-based; details: 10 nM, 24 h pretreatment, 2 h SI + 10 min reoxygenation; n = 3; vehicle 0.33 ± 0.09
Experimental: as §1

HL-1 cardiomyocytes [3] = experiment: MTT viability of HL-1 cardiomyocytes, simulated ischemia-reoxygenation or normoxia (Protocol 1); assay type: cell-based
Experimental: Before initiating experiments, HL-1 cells were grown to ~80% confluence in 95% room air/5% CO2 at 37 °C in Claycomb medium supplemented with fetal bovine serum (10%), L-glutamine (2 mM), norepinephrine (0.1 mM), penicillin (100 U/mL) and streptomycin (100 µg/mL) [21, 22].
At 24 h after the onset of treatment, cells were subjected to 2 h of simulated ischemia (SI) + 24 h reoxygenation. During SI, Claycomb medium containing drug/placebo was replaced with drug-free hypoxia buffer at pH 6.6 (composed of NaCl (125 nM), KCl (8 mM), KH2PO4 (1.2 mM),1.25 mM MgSO4 (1.25 mM), CaCl2 (1.2 mM), NaHCO3 (6.25 mM), HEPES (20 mM), glucose (5.5 mM), 2-deoxy-D-glucose (20 mM), Na-lactate (5 mM): all ingredients from Sigma Aldrich, St. Louis, MO, USA) and the culture plates were sealed in a hermetic chamber with GasPak EZ Gas Generating Sachets (BD Biosciences, San Jose, CA, USA). Reoxygenation was achieved by removing the plates from the sealed chamber and exchanging the hypoxia buffer with serum-free Claycomb medium [21, 22]. Additional time- and treatment-matched normoxic cultures served as controls (n = 4 independent replicates per group).
as §2

Molecule | HL-1 cell viability under normoxic conditions, alone or in combination (Protocol 2B) (HL-1 cardiomyocytes [1]; peptides 10 nM, PD98059 5 µM, 24 h, normoxia, n = 2, no statistics) | phospho-Akt expression (normalized to GAPDH) (phospho-Akt) | Hemodynamic effects in post-menopausal women with osteoporosis ([2]; sc) | Incidence of adverse cardiac events in treated subjects [2] | phospho-ERK expression (normalized to total ERK) (phospho-ERK) | SI-reoxygenation-induced cell death (Protocol 2B) (HL-1 cardiomyocytes [1]; 10 nM, 24 h pretreatment, 2 h SI + 24 h reoxygenation, n = 2, versus vehicle) | Protective effect on HL-1 viability with co-administration of PD98059 (HL-1 cardiomyocytes [1]; peptide 10 nM + PD98059 5 µM, 24 h, then 2 h SI + 24 h reoxygenation, n = 2) | Concentration dependence of % viability / magnitude of protection after SI-reoxygenation (HL-1 cardiomyocytes [3]; 24 h pretreatment, 2 h SI + 24 h reoxygenation, Protocols 1A, 1B, confirmed in 1C) | HL-1 cell viability after SI-reoxygenation (HL-1 cardiomyocytes [3]; 24 h pretreatment, then 2 h simulated ischemia + 24 h reoxygenation, PTHrP(1-36) 10, 100 nM (n = 4), abaloparatide 0.1-100 nM (n = 5), versus vehicle) | HL-1 cell viability under normoxic conditions (HL-1 cardiomyocytes [3]; time- and treatment-matched normoxic cultures)
COc1cccc(-c2cc(=O)c3ccccc3o2)c1N [PD98059] | neither PTHrP(1-36), abaloparatide, or PD98059, given alone or in combination, had an effect |  |  |  |  |  |  |  |  | 
abaloparatide |  | better preservation | modest and transient increases in heart rate and decreases in supine blood pressure | no evidence of an increase | modest but significant increase | attenuated | abrogated | modestly but significantly greater in cells incubated with 10 nM | significantly better maintained | no effect
